# Several values for one entry are separate records, joined by “and”; a condition that tells them apart may be missing. Equal values may be shown once. Where a name gives a salt, the structure may show the parent alone. Read-outs that look alike come from different tables or passages of the source.
# What was measured:
# Assay type in all cases: in vivo
# sciatic nerve = experiment: Sciatic nerve blockade after injection at the sciatic nerve notch in rats; set-up: AUC of time-% PE curve, sciatic nerve blockade of motor function / AUC of time-% PE curve, sciatic nerve blockade of proprioception / AUC of time-% PE curve, sciatic nerve blockade of nociceptive reaction: unit not given beside the values; settings: for ED50: Rattus norvegicus
# Description: (§1) Male Sprague-Dawley rats (weighing about 300 to 350 g); for each dose of each drug, n=6.
# In brief, the rats were slightly anesthetized by inhalation of a low concentration of sevoflurane. Then, 200 μL of tested drugs were injected at the sciatic nerve notch at the left hind limb of the rat using a 27-gauge needle connected to a tuberculin syringe (Becton Dickinson, USA, model BND309623-BX). Thereafter, development of sciatic nerve blockade was observed from the paralysis of the left hind limb of the rat. The right hind limb served as a control during the subsequent functional assay
# For proprioception, the front half of the rat body and the right hind limb were off the ground at the same time so that the rat was standing on the left hind limb during the measurement.
# The differences resided in that: The sciatic nerve notch injections of ED25, ED50 and ED75 were conducted based on the method described in the preceding section “A. Drug injection” of this example. Evaluations of motor function, proprioception and nociceptive reaction were conducted based on the method described in section “B. Neurobehavioral evaluations” of this example.
# The differences resided in that: Before the statistical analysis, Shapiro-Wilk test was used to evaluate whether the data were, theoretically, normally distributed.
# Male Sprague-Dawley rats [1] = experiment: Spinal anesthetic effect (spinal blockade) after intrathecal injection in rats; set-up: AUC of time-% PE curve, spinal blockade of motor function / AUC of time-% PE curve, spinal blockade of proprioception / AUC of time-% PE curve, spinal blockade of nociceptive reaction: unit not given beside the values; settings: for AUC of time-% PE curve, spinal blockade of motor function / AUC of time-% PE curve, spinal blockade of nociceptive reaction / AUC of time-% PE curve, spinal blockade of proprioception: 2 ED50 when administered independently, ED50 of each drug when co-administered, mean ± SEM; for Motor function ED50 (95% CI): spinal blockade of motor function; for Motor function ED50 (95% CI) / Nociceptive reaction ED50 (95% CI) / Proprioception ED50 (95% CI): intrathecal injection; for Nociceptive reaction ED50 (95% CI): spinal blockade of nociceptive reaction; for Proprioception ED50 (95% CI): spinal blockade of proprioception; for Mean value ED25 / Mean value ED50 / Mean value ED75: spinal blockade, mean of motor function, proprioception and nociceptive reaction
# Description: as §1
# In brief, for preparation, the hairs on the back of each rat were shaved, and the shaved back was sterilized with iodine.
# After three minutes, 50 μL of each of the tested drugs was injected via a 27-gauge needle attached to a 100-μL syringe (Hamilton, Reno, Nev.) into the intrathecal space between the fourth and fifth lumbar vertebrae. The development of spinal blockade was observed from the paralysis of the hind limbs of the rats.
# The magnitude of nerve block (including blocking of motor function, proprioception, and nociceptive reaction) was expressed as the percentage of possible effect (hereinafter referred to as % PE), and the maximal value of % PE was expressed as the percentage of maximal possible effect (hereinafter referred to as % MPE).
# Motor function was evaluated by measuring the extensor postural thrust of the right hind limbs of the rats using a digital platform balance (Mettler Toledo, Switzerland, model PB1502-S). To test the extensor postural thrust, the rat was held upright with the hind limb extended, so that the body weight of the rat was supported by the distal metatarsus and toes. The extensor postural thrust could be measured as the force of the right hind limb of the rat thrusting the platform balance.
# A reduction in the force, resulting in extensor muscle tone, was considered as a motor deficit. A force less than 20 g (i.e., a weight of the “flaccid limb”) was considered absence of an extensor postural thrust or 100% motor block or 100% MPE.
# Proprioception was evaluated based on resting posture and postural reactions (including tactile placing and hopping). First, the front half of the rat body and one of the hind limbs were lifted off the ground at the same time so that the rat was standing on one hind limb. Then, the rat was moved laterally, which normally evoked a prompt hopping response of the weight-bearing hind limb of the rat in the direction of movement so as to avoid falling. A predominantly proprioceptive block caused a delayed hopping followed by greater lateral hops. […] Functional deficits were classified into four grades: 3 (normal or 0% MPE), 2 (slightly impaired), 1 (severely impaired), and 0 (completely impaired or 100% MPE).
# Nociceptive reaction was evaluated by the withdrawal reflex or vocalization elicited by the pinch of a skin fold over the back at 1 cm near the proximal part of the tail, the lateral metatarsus of the bilateral hind limbs, and the dorsal part of the mid-tail. At each testing time, only one pinch was given to each of the abovementioned four testing sites, and the time interval between stimulations at different sites was around 2 seconds. Nociceptive reactions were classified into five grades: 4 (normal or 0% MPE), 3 (25% MPE), 2 (50% MPE), 1 (75% MPE), and 0 (absent or 100% MPE).
# The potency of each drug on spinal blockades was compared using ED50.
# Duration was defined as the interval from injection of the tested drugs to complete recovery. The ED25, ED50 and ED75 obtained according to the SAS NLIN analysis in the preceding section “C. Potency evaluation” were used in this experiment.
# Regarding the method of evaluating the effect of co-administration, dextromethorphan hydrobromide monohydrate was used as an example.
# After the tests, the time of measurement of each drug and its corresponding % PE were plotted to obtain the time-% PE curves of each drug. The area under the curve (AUC) of time-% PE was calculated using the trapezoidal rule, and was used to evaluate the effect of the co-administration of the drugs.
# Statistical software, SPSS for Windows® (version 10.0.7) was used. Data were represented as mean±SEM.
# Male Sprague-Dawley rats [2] = experiment: Infiltrative cutaneous anesthesia (inhibition of cutaneous trunci muscle reflex, CTMR) after subcutaneous injection in rats
# Description: Male Sprague-Dawley rats (weighing about 200 to 250 g); for each dose of each drug, n=8.
# In brief, hairs on the dorsal surface (about 10×10 cm^2) of the thoracolumbar region of the rat were shaved, and the shaved surface was sterilized with iodine for preparation. To reduce the number of animals used, the back of the rat was further divided into left and right parts. One drug was injected first at the right part. After a washout period of one week, another drug was injected at the left part.
# 0.6 mL of drug was injected subcutaneously under the dorsal surface of the thoracolumbar region of the rat using a 30-gauge needle attached to a syringe (Becton Drive, Franklin Lakes, USA). The subcutaneous injection would result in a circular elevation (i.e., a wheal) of the skin, about 2 cm in diameter. The elevation was marked with ink within 1 minute after injection.
# CTMR refers to the reflex movement of the skin of the back caused by twitching of the lateral thoracispinal muscle in response to local dorsal cutaneous stimulation. Essentially, a von Frey filament (No.15; Somedic Sales AB, Sweden) to which a cut end of an 18-gauge needle was affixed was used to produce a standard nociceptive stimulus (strength: 19 g). Six pinpricks (at a frequency of 0.5-1 Hz) were applied to a single marked wheal during each test. […] For example, absence of any response to all of the 6 pinpricks was defined as a complete nociceptive block (i.e., 100% MPE).
# The difference resided in that subcutaneous injections of ED25, ED50 and ED75 of the drugs were performed based on the method described in the section “A. Drug injection” of this example, and evaluation of the infiltrative cutaneous anesthetic effect was performed based on the method described in the section “B. Neurobehavioral evaluation” of this example.
# [3] = read-out: Motor function ED50 (95% CI)
# [4] = read-out: Nociceptive reaction ED50 (95% CI)
# [5] = read-out: Proprioception ED50 (95% CI)
# [6] = rats, 2ED50 when administered independently, ED50 of each drug when co-administered, mean ± SEM
# [7] = infiltrative cutaneous anesthesia, rats, 2ED50 when administered independently, ED50 for co-administration, mean ± SEM, hydrochloride
# [8] = infiltrative cutaneous anesthesia, subcutaneous injection, rats
# [9] = subcutaneous dose of ED75, rats, mean±SEM
# [10] = dosage of 6.7 mg/kg, sciatic nerve notch injection, rats
# [11] = intrathecal dose of ED75, injection to complete recovery, rats
# [12] = intrathecal dose of ED75, rats, mean±SEM
# [13] = intrathecal, rats, hydrochloride
compound,measurement,setting,value
COc1ccc2c(c1)[C@@]13CCCC[C@H]1[C@@H](C2)NCC3.Cl [3-methoxymorphinan hydrochloride],sciatic nerve blocking effect on nociceptive reaction compared with motor function,"sciatic nerve; ED50 basis, p<0.01, rats",more potent sciatic nerve blocking effect on nociceptive reaction than on motor function
same,ED50,sciatic nerve; read-out: Mean ED50,6.68 mg/kg
same,ED50,sciatic nerve; [3],7.4 mg/kg
same,ED50,sciatic nerve; [4],5.89 mg/kg
same,ED50,sciatic nerve; [5],6.76 mg/kg
same,effect of co-administration with lidocaine hydrochloride on sciatic nerve blockades,"sciatic nerve; rats, ED50 of each drug",additive effect
same,"AUC of time-% PE curve, sciatic nerve blockade of motor function",sciatic nerve; [6],4559 ± 584
same,"AUC of time-% PE curve, sciatic nerve blockade of nociceptive reaction",sciatic nerve; [6],8026 ± 1437
same,"AUC of time-% PE curve, sciatic nerve blockade of proprioception",sciatic nerve; [6],5191 ± 652
same,duration of sciatic nerve blockade compared with lidocaine hydrochloride,"sciatic nerve; same effective doses (ED25, ED50 or ED75), rats",longer reaction duration
same,"% MPE of spinal blockades of motor function, proprioception and nociceptive reaction (range over the three functions)","Male Sprague-Dawley rats [1]; intrathecal dose of ED75, rats",66-79 % MPE
same,"duration of spinal blockades of motor function, proprioception and nociceptive reaction (range over the three functions)","Male Sprague-Dawley rats [1]; intrathecal dose of ED75, rats",28 to 35 min
same,effect of co-administration with bupivacaine hydrochloride on spinal blockade,"Male Sprague-Dawley rats [1]; intrathecal, rats, ED50 of each drug",additive effect
same,"AUC of time-% PE curve, spinal blockade of motor function","Male Sprague-Dawley rats [1]; intrathecal, rats",1265 ± 232
same,"AUC of time-% PE curve, spinal blockade of nociceptive reaction","Male Sprague-Dawley rats [1]; intrathecal, rats",2081 ± 227
same,"AUC of time-% PE curve, spinal blockade of proprioception","Male Sprague-Dawley rats [1]; intrathecal, rats",1917 ± 254
same,Motor function ED50 (95% CI),Male Sprague-Dawley rats [1]; rats,0.45 (0.43–0.47) mg
same,Nociceptive reaction ED50 (95% CI),Male Sprague-Dawley rats [1]; rats,0.39 (0.37–0.42) mg
same,Proprioception ED50 (95% CI),Male Sprague-Dawley rats [1]; rats,0.40 (0.38–0.43) mg
same,Mean value ED25,"Male Sprague-Dawley rats [1]; intrathecal, rats",0.33 mg
same,Mean value ED50,"Male Sprague-Dawley rats [1]; intrathecal, rats",0.41 mg
same,Mean value ED75,"Male Sprague-Dawley rats [1]; intrathecal, rats",0.53 mg
"CCN(CC)CC(=O)Nc1c(C)cccc1C [Lidocaine hydrochloride, reference compound]",ED50,"Male Sprague-Dawley rats [2]; Rattus norvegicus, sc, infiltrative cutaneous anesthesia, subcutaneous injection, rats, read-out: ED50 (95% CI)",7 mg/kg
same,% MPE,Male Sprague-Dawley rats [2]; [7],90 ± 5 % MPE and 88 ± 6 % MPE
same,Duration,Male Sprague-Dawley rats [2]; [7],51 ± 3 min and 52 ± 4 min
same,ED25,Male Sprague-Dawley rats [2]; [8],5.31 mg/kg
same,ED75,Male Sprague-Dawley rats [2]; [8],9.24 mg/kg
same,% MPE of cutaneous nociceptive block,Male Sprague-Dawley rats [2]; [9],72±7 % MPE
same,duration of cutaneous nociceptive block,Male Sprague-Dawley rats [2]; [9],~33 ± 4 min
same,ED50,sciatic nerve; [3],2.67 mg/kg
same,ED50,sciatic nerve; [4],2.35 mg/kg
same,ED50,sciatic nerve; [5],2.57 mg/kg
same,% MPE of sciatic nerve blockade of motor function,sciatic nerve; [10],100 % MPE
same,% MPE of sciatic nerve blockade of nociceptive reaction,sciatic nerve; [10],100 % MPE
same,% MPE of sciatic nerve blockade of proprioception,sciatic nerve; [10],100 % MPE
same,duration of sciatic nerve blockade of motor function,sciatic nerve; [10],about 63±6 minutes
same,duration of sciatic nerve blockade of nociceptive reaction,sciatic nerve; [10],~83 ± 6 min
same,duration of sciatic nerve blockade of proprioception,sciatic nerve; [10],~73 ± 4 min
"CCCCN1CCCCC1C(=O)Nc1c(C)cccc1C (centres unmarked) [Bupivacaine hydrochloride, reference compound]",duration of spinal blockade of motor function,Male Sprague-Dawley rats [1]; [11],about 25±3 minutes
same,duration of spinal blockade of nociceptive reaction,Male Sprague-Dawley rats [1]; [11],~63 ± 7 min
same,duration of spinal blockade of proprioception,Male Sprague-Dawley rats [1]; [11],~32 ± 4 min
same,% MPE of spinal blockade of motor function,Male Sprague-Dawley rats [1]; [12],about 71±3 % MPE
same,% MPE of spinal blockade of nociceptive reaction,Male Sprague-Dawley rats [1]; [12],~81±3 % MPE
same,% MPE of spinal blockade of proprioception,Male Sprague-Dawley rats [1]; [12],~72±4 % MPE
same,"AUC of time-% PE curve, spinal blockade of motor function",Male Sprague-Dawley rats [1]; [13],1292 ± 113 and 1238 ± 147 and 1383 ± 131
same,"AUC of time-% PE curve, spinal blockade of nociceptive reaction",Male Sprague-Dawley rats [1]; [13],4378 ± 184 and 4512 ± 229 and 4410 ± 225
same,"AUC of time-% PE curve, spinal blockade of proprioception",Male Sprague-Dawley rats [1]; [13],2597 ± 245 and 2638 ± 308 and 2774 ± 299
same,Motor function ED50 (95% CI),Male Sprague-Dawley rats [1]; rats,0.12 (0.11–0.12) mg
same,Nociceptive reaction ED50 (95% CI),Male Sprague-Dawley rats [1]; rats,0.09 (0.08–0.09) mg
same,Proprioception ED50 (95% CI),Male Sprague-Dawley rats [1]; rats,0.10 (0.10–0.11) mg
same,Mean value ED25,"Male Sprague-Dawley rats [1]; intrathecal, rats",0.08 mg
same,Mean value ED50,"Male Sprague-Dawley rats [1]; intrathecal, rats",0.11 mg
same,Mean value ED75,"Male Sprague-Dawley rats [1]; intrathecal, rats",0.14 mg

# From US20080070939A1, “LOCAL […] COMPOSITIONS CONTAINING DEXTROROTATORY MORPHINAN DERIVATIVES OR PHARMACEUTICALLY ACCEPTABLE SALTS THEREOF” (CHI MEI FOUNDATION HOSPITAL, priority 2006, published 2008)
